Measurements as given in ChEMBL document CHEMBL4354824, “4-Aryl-1-oxa-4,9-diazaspiro[5.5]undecane Derivatives as Dual μ-Opioid Receptor Agonists and σ1 Receptor Antagonists for the Treatment of Pain” (J Med Chem, 2020).

How the values were obtained:
Mu-type opioid receptor [1] = target: T1, Mu-type opioid receptor (Homo sapiens, UniProt P35372); test: Agonist activity at human MOR expressed in CHOK1 cells assessed as […] of cAMP accumulation incubated for 45 mins by HTRF assay; assay type: functional, cell-based
Mu-type opioid receptor [2] = target: T1, Mu-type opioid receptor; test: Agonist activity at human MOR expressed in CHOK1 cells assessed as […] of cAMP accumulation at 1 uM incubated for 45 mins by HTRF assay; assay type: functional, cell-based
[3] = target: Sigma non-opioid intracellular receptor 1 (Homo sapiens, UniProt Q99720); test: Displacement of [3H]-(+)-pentazocine from human sigma-1 receptor expressed in HEK293 membranes incubated for 120 mins by liquid scintillation counting method
Mu-type opioid receptor [4] = target: T1, Mu-type opioid receptor; test: biochemical
Description: Displacement of [3H]-DAMGO from human MOR expressed in CHOK1 cell membranes incubated for 60 mins by liquid scintillation counting method

Mu-type opioid receptor [5] = target: T1, Mu-type opioid receptor; test: Agonist activity at human MOR expressed in CHOK1 cells assessed as […] of cAMP accumulation incubated for 45 mins by HTRF assay relative to DAMGO; assay type: functional, cell-based
[6] = target: T2, Alpha-1A adrenergic receptor (Homo sapiens) (UniProt P35348); test: Displacement of [3H]-prazosin from human alpha1A adrenoreceptor expressed in enriched membranes at 1 uM incubated for 90 mins by liquid scintillation counting method relative to control; assay type: cell membranes
T2 sequence (whole entry): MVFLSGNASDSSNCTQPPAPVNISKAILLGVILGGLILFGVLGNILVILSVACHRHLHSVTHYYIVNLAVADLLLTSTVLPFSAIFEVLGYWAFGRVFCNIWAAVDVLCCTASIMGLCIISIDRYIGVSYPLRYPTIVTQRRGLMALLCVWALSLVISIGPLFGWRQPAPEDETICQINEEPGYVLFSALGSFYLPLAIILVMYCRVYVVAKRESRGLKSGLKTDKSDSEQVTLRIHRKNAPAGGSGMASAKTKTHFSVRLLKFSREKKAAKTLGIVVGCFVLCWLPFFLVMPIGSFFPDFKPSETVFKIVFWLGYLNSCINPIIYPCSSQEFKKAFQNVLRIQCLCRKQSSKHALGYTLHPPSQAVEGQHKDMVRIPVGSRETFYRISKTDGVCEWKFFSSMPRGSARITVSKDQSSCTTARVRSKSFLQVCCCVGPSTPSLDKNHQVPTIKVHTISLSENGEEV

Mu-type opioid receptor [7] = target: T1, Mu-type opioid receptor; test: Displacement of [3H]-DAMGO from human MOR expressed in CHOK1 cell membranes at 1 uM incubated for 60 mins by liquid scintillation counting method
[8] = target: Voltage-gated inwardly rectifying potassium channel KCNH2 (Homo sapiens, UniProt Q12809)
Voltage-gated inwardly rectifying potassium channel KCNH2, sequence (Q12809 whole entry): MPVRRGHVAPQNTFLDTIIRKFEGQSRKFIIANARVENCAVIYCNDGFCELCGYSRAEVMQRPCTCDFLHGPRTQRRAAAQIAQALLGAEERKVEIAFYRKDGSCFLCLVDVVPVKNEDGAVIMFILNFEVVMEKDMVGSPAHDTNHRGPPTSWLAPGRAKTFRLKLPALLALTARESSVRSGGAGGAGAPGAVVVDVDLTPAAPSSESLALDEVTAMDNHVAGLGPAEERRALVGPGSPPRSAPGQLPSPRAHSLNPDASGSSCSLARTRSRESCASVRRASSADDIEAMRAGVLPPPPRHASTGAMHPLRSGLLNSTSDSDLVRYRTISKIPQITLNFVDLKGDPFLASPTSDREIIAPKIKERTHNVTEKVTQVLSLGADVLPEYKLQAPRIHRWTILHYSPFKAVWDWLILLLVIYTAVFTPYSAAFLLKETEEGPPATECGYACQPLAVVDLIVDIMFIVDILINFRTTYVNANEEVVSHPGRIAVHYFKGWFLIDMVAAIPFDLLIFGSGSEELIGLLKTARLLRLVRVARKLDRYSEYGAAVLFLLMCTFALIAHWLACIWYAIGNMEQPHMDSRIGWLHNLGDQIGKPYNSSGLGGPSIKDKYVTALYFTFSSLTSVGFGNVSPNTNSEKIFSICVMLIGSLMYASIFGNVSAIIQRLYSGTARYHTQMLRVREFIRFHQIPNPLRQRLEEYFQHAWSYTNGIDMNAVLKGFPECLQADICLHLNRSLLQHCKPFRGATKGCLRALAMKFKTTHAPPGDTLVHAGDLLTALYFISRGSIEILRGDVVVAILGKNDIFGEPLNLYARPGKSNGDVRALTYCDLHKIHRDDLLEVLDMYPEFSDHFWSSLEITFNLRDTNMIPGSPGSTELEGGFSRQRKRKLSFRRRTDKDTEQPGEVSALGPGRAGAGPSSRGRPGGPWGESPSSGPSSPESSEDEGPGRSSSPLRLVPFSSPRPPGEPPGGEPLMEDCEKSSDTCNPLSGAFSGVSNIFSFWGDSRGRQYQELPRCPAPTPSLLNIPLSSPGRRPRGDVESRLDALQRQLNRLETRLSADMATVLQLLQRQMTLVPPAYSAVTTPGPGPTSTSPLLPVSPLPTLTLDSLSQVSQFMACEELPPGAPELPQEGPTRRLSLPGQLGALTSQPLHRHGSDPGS
Description: Inhibition of human ERG expressed in CHOK1 cells assessed as reduction in channel current at -80 mV holding potential by whole cell patch clamp assay

T1 sequence (P35372 whole entry): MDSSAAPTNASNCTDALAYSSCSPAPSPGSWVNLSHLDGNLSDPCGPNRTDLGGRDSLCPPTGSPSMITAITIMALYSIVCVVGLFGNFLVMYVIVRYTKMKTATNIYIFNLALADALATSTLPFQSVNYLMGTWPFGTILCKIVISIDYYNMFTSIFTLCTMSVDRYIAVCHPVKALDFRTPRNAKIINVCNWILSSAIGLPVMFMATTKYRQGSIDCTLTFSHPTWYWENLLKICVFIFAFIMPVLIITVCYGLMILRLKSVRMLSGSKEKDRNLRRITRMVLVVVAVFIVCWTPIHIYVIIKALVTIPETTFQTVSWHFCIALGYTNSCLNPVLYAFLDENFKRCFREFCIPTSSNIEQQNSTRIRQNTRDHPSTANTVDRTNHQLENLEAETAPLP
Sigma non-opioid intracellular receptor 1, sequence (Q99720 whole entry): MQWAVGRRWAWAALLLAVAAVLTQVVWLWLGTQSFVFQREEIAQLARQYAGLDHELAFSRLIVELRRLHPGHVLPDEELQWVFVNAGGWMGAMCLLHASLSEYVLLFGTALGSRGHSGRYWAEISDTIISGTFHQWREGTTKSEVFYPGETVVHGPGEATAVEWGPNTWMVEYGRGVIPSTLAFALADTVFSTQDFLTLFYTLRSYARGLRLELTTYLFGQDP

Structure (SMILES)	EC50 (Mu-type opioid receptor [1])	Activity (Mu-type opioid receptor [2])	Ki [3]	Ki (Mu-type opioid receptor [4])	Emax (Mu-type opioid receptor [5])	inhibition [6]	inhibition (Mu-type opioid receptor [7])	IC50 [8]
O=C1OC2(CCN(CCc3ccccc3)CC2)CN1c1ccccc1	> 1000 nM	< 50%	55 nM	401 nM	–	–	–	–
CC1OC2(CCN(CCc3ccccc3F)CC2)CN(c2ccccc2)C1=O (stereo unspecified)	–	–	–	–	95%	81%	–	–
O=C1COC2(CCN(CCc3ccccc3)C2)CN1c1ccccc1 (stereo unspecified)	> 1000 nM	< 50%	53 nM	> 1000 nM	–	–	< 50%	–
O=C1N(c2ccccc2)CC2(CCN(CCc3ccccc3)CC2)OC12CC2	11 nM	–	9 nM	15 nM	93%	87%	–	1200 nM
O=C1C(CO)OC2(CCN(CCc3ccccc3)CC2)CN1c1ccccc1 (stereo unspecified)	125 nM	–	209 nM	46 nM	88%	55%	–	1100 nM
CC1OC2(CCN(CCc3cccnc3)CC2)CN(c2ccccc2)C1=O (stereo unspecified)	853 nM	–	91 nM	117 nM	85%	67%	–	–
CC1OC2(CCN(CCc3ccccn3)CC2)CN(c2ccccc2)C1=O (stereo unspecified)	229 nM	–	53 nM	90 nM	85%	49%	–	2000 nM
C[C@H]1OC2(CCN(CCc3ccccc3)CC2)CN(c2ccccc2)C1=O	–	–	21 nM	–	95%	75%	–	–
CC1OC2(CCN(CCc3ccccc3)CC2)CN(c2ccncc2)C1=O (stereo unspecified)	> 1000 nM	< 50%	88 nM	> 1000 nM	–	68%	< 50%	–
CC1OC2(CCN(CCc3ccccc3)CC2)CN(c2cccnc2C(F)(F)F)C1=O (stereo unspecified)	186 nM	–	48 nM	123 nM	87%	55%	–	3800 nM
CC1OC2(CCN(CCc3ccccn3)CC2)CN(c2cnccc2C(F)(F)F)C1=O (stereo unspecified)	767 nM	–	622 nM	127 nM	93%	47%	–	–
O=C1C(COCc2ccccc2)OC2(CCN(CCc3ccccc3)CC2)CN1c1ccccc1 (stereo unspecified)	107 nM	–	40 nM	40 nM	96%	94%	–	100 nM
CC1OC2(CCN(CCc3ccc(F)cc3)CC2)CN(c2ccccc2)C1=O (stereo unspecified)	25 nM	–	11 nM	19 nM	95%	80%	–	100 nM
CC1OC2(CCN(CCc3ccccc3)CC2)CN(c2ccccc2O)C1=O (stereo unspecified)	> 1000 nM	< 50%	51 nM	535 nM	–	66%	–	–
CC1OC2(CCN(CCc3ccccc3)CC2)CN(c2ccccc2Cl)C1=O (stereo unspecified)	1 nM	–	8 nM	3 nM	96%	75%	–	1000 nM
CC1OC2(CCN(CCc3ccccc3)CC2)CN(c2cncc(F)c2)C1=O (stereo unspecified)	230 nM	–	3 nM	204 nM	87%	85%	–	1100 nM
COC(=O)CC1OC2(CCN(CCc3ccccc3)CC2)CN(c2ccccc2)C1=O (stereo unspecified)	181 nM	–	54 nM	92 nM	85%	72%	–	200 nM
CC(C)C1OC2(CCN(CCc3ccccc3)CC2)CN(c2ccccc2)C1=O (stereo unspecified)	0.2 nM	–	10 nM	1 nM	96%	65%	–	1200 nM
CC1OC2(CCN(CCc3ccncc3)CC2)CN(c2ccccc2)C1=O (stereo unspecified)	1420 nM	–	112 nM	516 nM	81%	30%	–	–
CC1OC2(CCN(CCc3ccccc3)CC2)CN(c2ccccc2F)C1=O (stereo unspecified)	4 nM	–	11 nM	8 nM	94%	68%	–	1200 nM
CC1OC2(CCN(CCc3cccc(F)c3)CC2)CN(c2ccccc2)C1=O (stereo unspecified)	13 nM	–	8 nM	10 nM	94%	74%	–	600 nM
C[C@H]1OC2(CCN(CCc3ccccc3F)CC2)CN(c2ncccc2C(F)(F)F)C1=O	65 nM	–	103 nM	34 nM	98%	50%	–	6600 nM

Structure (SMILES)	EC50 (Mu-type opioid receptor [1])	Activity (Mu-type opioid receptor [2])	Ki [3]	Ki (Mu-type opioid receptor [4])	Emax (Mu-type opioid receptor [5])	inhibition [6]	inhibition (Mu-type opioid receptor [7])	IC50 [8]
CC1OC2(CCN(CCc3ccccc3)CC2)CN(c2cccc(C(F)(F)F)n2)C1=O (stereo unspecified)	219 nM	–	8 nM	90 nM	91%	95%	–	–
CC1(C)OC2(CCN(CCc3ccccc3)CC2)CN(c2ccccc2)C1=O	4 nM	–	13 nM	3 nM	98%	92%	–	100 nM
CN(C)C(=O)CC1OC2(CCN(CCc3ccccc3)CC2)CN(c2ccccc2)C1=O (stereo unspecified)	> 1000 nM	< 50%	275 nM	636 nM	–	–	–	–
CC1OC2(CCN(CCc3cccc(C#N)c3)CC2)CN(c2ccccc2)C1=O (stereo unspecified)	61 nM	–	28 nM	49 nM	88%	80%	–	600 nM
CC(=O)Nc1ccccc1CCN1CCC2(CC1)CN(c1ccccc1)C(=O)C(C)O2 (stereo unspecified)	342 nM	–	656 nM	190 nM	95%	68%	–	–
CC1OC2(CCN(CCc3ccccc3)CC2)CN(c2cncc(C(F)(F)F)c2)C1=O (stereo unspecified)	721 nM	–	14 nM	261 nM	92%	87%	–	500 nM
C[C@@H]1OC2(CCN(CCc3ccccc3)CC2)CN(c2ccccc2)C1=O	–	–	14 nM	–	83%	68%	–	–
CC1OC2(CCN(CCc3ccccc3)CC2)CN(c2ccccc2)C1=O (racemic)	–	–	6 nM	–	–	–	–	–
COc1cccc(N2CC3(CCN(CCc4ccccc4)CC3)OC(C)C2=O)c1 (stereo unspecified)	304 nM	–	15 nM	126 nM	88%	82%	–	1000 nM
COCC1OC2(CCN(CCc3ccccc3)CC2)CN(c2ccccc2)C1=O (stereo unspecified)	32 nM	–	32 nM	13 nM	90%	63%	–	1900 nM
CC1OC2(CCN(CCc3ccccc3)CC2)CN(c2ccc(O)cc2)C1=O (stereo unspecified)	> 1000 nM	< 50%	122 nM	606 nM	–	68%	–	–
CC1OC2(CCN(CCc3ccccc3)CC2)CN(c2cnccc2C(F)(F)F)C1=O (stereo unspecified)	25 nM	–	63 nM	28 nM	96%	58%	–	3300 nM
CC1OC2(CCN(CCc3ccccc3)CC2)CN(c2cccc(O)c2)C1=O (stereo unspecified)	> 1000 nM	< 50%	55 nM	727 nM	–	67%	–	–
CC1OC2(CCN(CCc3ccccc3)CC2)CN(c2ncccc2F)C1=O (stereo unspecified)	199 nM	–	39 nM	93 nM	90%	77%	–	1200 nM
C[C@H]1OC2(CCN(CCc3ccccc3F)CC2)CN(c2cnccc2C(F)(F)F)C1=O	26 nM	–	61 nM	11 nM	100%	54%	–	6300 nM
CC1OC2(CCN(CCc3ccccc3)CC2)CN(c2cnccn2)C1=O (stereo unspecified)	527 nM	–	13 nM	304 nM	55%	64%	–	100 nM
CC1OC2(CCN(CCc3ccccc3)CC2)CN(c2ncccc2C(F)(F)F)C1=O (stereo unspecified)	343 nM	–	54 nM	262 nM	100%	60%	–	8200 nM
COc1ccccc1N1CC2(CCN(CCc3ccccc3)CC2)OC(C)C1=O (stereo unspecified)	144 nM	–	38 nM	57 nM	81%	78%	–	–
CC1OC2(CCN(CCc3ccccc3)CC2)CN(c2cccnc2)C1=O (stereo unspecified)	627 nM	–	68 nM	304 nM	54%	69%	–	–
CC1OC2(CCN(CCc3ccccc3)CC2)CN(c2ccccn2)C1=O (stereo unspecified)	1990 nM	–	13 nM	930 nM	50%	63%	–	–
CCC1OC2(CCN(CCc3ccccc3)CC2)CN(c2ccccc2)C1=O (stereo unspecified)	1 nM	–	6 nM	3 nM	99%	75%	–	400 nM
O=C1COC2(CCN(Cc3ccccc3)CC2)CN1c1ccccc1	3040 nM	–	26 nM	534 nM	74%	–	–	–
